Where two headings read alike, the source gives them in different places.
What was measured:
human cyclin B-CDK1 = human cyclin B-CDK1 (Homo sapiens, UniProt P06493); assay: FlashPlate kinase assay, cyclin B-CDK1; type: biochemical; conditions: Rb protein substrate, 1 μM ATP, 33P-ATP, 30 minutes room temperature
Protocol: To determine inhibition of Cdk4, Cdk2 and Cdk1 activity, kinase assays were conducted using FlashPlate™ assays (NEN™-Life Science Products). FlashPlate assays were performed using recombinant human cyclin B-CDK1, human cyclin E-CDK2 or human cyclin D1-CDK4 complexes. GST-cyclinE (GST-cycE), CDK2, GST-cyclinB (GST-cycB), CDK1, GST-CDK4 and cyclin D1 (cycD1) cDNA clones in baculovirus vectors were provided by Dr. W. Harper at the Baylor College of Medicine, Houston, Tex. Proteins were co-expressed in High Five™ insect cells and the complex was purified on glutathione Sepharose resin (Pharmacia, Piscataway, N.J.) as previously described (Harper, J. W. et al. Cell 1993, 75, 805–816). A 6×-Histidine tagged truncated form of retinoblastoma (Rb) protein (amino acid 386–928) was used as the substrate for the cycD1-CDK4, cycB-CDK1 and the cycE-CDK2 assays (the expression plasmid was provided by Dr. Veronica Sullivan, Department of Molecular Virology, Roche Research Centre, Welwyn Garden City, United Kingdom). The Rb protein is a natural substrate for phosphorylation by CDK4, CDK2 and CDK1 (see Herwig and Strauss Eur. J. Biochem. Vol. 246 (1997) pp. 581–601 and the references cited therein).
(§1) The expression of the 62Kd protein was under the control of an IPTG inducible promoter in an M15 E. coli strain. Cells were lysed by sonication and purification was carried out by binding lysates at pH 8.0 to a Ni-chelated agarose column pretreated with 1 mM imidazole. The resin was then washed several times with incrementally decreasing pH buffers to pH 6.0, and eluted with 500 mM imidazole. Eluted protein was dialysed against 20 mM HEPES pH 7.5, 30% glycerol, 200 mM NaCl, and 1 mM DTT. Purified Rb fusion protein stocks were quantitated for protein concentration, aliquoted, and stored at −70° C.
(§2) For all three kinase assays reported herein, 96-well FlashPlates were coated with Rb protein at 10 μg/ml, using 100 μl per well. Plates were incubated at 4° C. overnight or at room temperature for 3 hours on a shaker. To control for nonspecific phosphorylation, one row of wells was coated with 100 μl/well coating buffer (20 mM HEPES, 0.2 M NaCl). Plates were then washed twice with wash buffer (0.01% Tween 20 in phosphate-buffered saline). Compounds to be tested (“test compounds”) were added to the wells at 5× final concentration. Reactions were initiated by immediate addition of 40 μl reaction mix (25 mM HEPES, 20 mM MgCl2, 0.002% Tween 20, 2 mM DTT, 1 μM ATP, 4 nM ^33P-ATP) and a sufficient amount of enzyme to give counts that were at least 10-fold above background. Plates were incubated at room temperature on a shaker for 30 minutes. Plates were washed four times with the wash buffer, sealed, and counted on the TopCount scintillation counter (Packard Instrument Co., Downers Grove, Ill.]. The percent inhibition of Rb phosphorylation, which is a measure of the inhibition of CDK activity, was determined according to the following formula:
[formula] where “test compound” refers to the average counts per minute of the test duplicates, “nonspecific” refers to the average counts per minute when no CyclinD/Cdk4, etc., was added, and “total” refers to the average counts per minute when no compound was added. The IC50 value is the concentration of test compound that reduces by 50% the protein-kinase induced incorporation of the radiolabel under the test conditions described.

human cyclin D1-CDK4 = human cyclin D1-CDK4 (Homo sapiens, UniProt P11802); assay: FlashPlate kinase assay, cyclin D1-CDK4; type: biochemical
Protocol: To determine inhibition of Cdk4, Cdk2 and Cdk1 activity, kinase assays were conducted using FlashPlate™ assays (NEN™-Life Science Products). FlashPlate assays were performed using recombinant human cyclin B-CDK1, human cyclin E-CDK2 or human cyclin D1-CDK4 complexes. GST-cyclinE (GST-cycE), CDK2, GST-cyclinB (GST-cycB), CDK1, GST-CDK4 and cyclin D1 (cycD1) cDNA clones in baculovirus vectors were provided by Dr. W. Harper at the Baylor College of Medicine, Houston, Tex.
as §1, §2
[formula] where “test compound” refers to the average counts per minute of the test duplicates, “nonspecific” refers to the average counts per minute when no CyclinD/Cdk4, etc., was added, and “total” refers to the average counts per minute when no compound was added.

[1] = Rb protein substrate, 1 μM ATP, 33P-ATP, 30 minutes room temperature, read-out: CDK4 IC50

human cyclin B-CDK1, sequence (P06493 whole entry): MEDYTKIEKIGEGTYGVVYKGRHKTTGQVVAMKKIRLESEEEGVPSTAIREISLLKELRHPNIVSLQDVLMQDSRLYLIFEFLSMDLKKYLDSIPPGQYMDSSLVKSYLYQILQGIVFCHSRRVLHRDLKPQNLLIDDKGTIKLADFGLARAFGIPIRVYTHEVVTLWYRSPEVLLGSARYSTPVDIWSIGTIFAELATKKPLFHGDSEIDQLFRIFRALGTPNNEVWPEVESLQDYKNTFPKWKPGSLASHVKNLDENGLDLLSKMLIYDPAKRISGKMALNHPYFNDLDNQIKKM
human cyclin B-CDK1, sequence (P14635 whole entry partner): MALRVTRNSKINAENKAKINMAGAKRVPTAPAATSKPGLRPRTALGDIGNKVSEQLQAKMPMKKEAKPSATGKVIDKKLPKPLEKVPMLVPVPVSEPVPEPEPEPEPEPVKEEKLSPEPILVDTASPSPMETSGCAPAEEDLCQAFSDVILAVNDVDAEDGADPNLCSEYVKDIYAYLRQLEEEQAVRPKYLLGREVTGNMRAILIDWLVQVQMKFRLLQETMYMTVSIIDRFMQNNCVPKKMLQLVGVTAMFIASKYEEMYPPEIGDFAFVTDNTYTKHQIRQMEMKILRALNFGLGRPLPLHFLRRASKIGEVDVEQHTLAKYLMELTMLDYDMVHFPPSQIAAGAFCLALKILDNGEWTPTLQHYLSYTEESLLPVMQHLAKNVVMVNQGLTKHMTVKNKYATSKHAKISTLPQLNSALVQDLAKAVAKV
human cyclin D1-CDK4, sequence (P11802 whole entry): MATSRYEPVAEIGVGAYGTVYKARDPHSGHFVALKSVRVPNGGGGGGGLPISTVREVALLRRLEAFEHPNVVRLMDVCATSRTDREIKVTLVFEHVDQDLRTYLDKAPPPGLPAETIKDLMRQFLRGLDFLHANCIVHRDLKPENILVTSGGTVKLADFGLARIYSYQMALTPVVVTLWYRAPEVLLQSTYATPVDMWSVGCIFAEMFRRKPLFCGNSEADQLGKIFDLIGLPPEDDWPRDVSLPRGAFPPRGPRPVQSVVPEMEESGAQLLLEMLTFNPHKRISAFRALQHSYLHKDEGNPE
human cyclin D1-CDK4, sequence (P24385 whole entry partner): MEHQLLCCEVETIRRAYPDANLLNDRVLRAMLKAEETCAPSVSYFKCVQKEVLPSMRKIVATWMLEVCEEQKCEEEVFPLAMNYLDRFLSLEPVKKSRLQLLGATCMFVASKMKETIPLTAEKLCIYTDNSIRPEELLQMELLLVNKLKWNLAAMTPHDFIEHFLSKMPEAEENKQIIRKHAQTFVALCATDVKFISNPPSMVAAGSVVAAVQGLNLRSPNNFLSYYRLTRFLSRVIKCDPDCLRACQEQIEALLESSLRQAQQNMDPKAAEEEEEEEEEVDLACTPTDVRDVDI

IC50 (human cyclin B-CDK1)	IC50 (human cyclin D1-CDK4; [1])	Compound	IC50 (human cyclin D1-CDK4)
–	114 nM	CN(C)C1CCN(c2ccc(Nc3nc(N)c(C(=O)c4ccc(F)cc4)s3)cc2)CC1 [Example 86, {4-Amino-2-[4-(4-dimethylamino-piperidin-1-yl)-phenylamino]-thiazol-5-yl}-(4-fluoro-phenyl)-methanone]	–
–	186 nM	Nc1nc(Nc2ccc(N3CCC(N4CCCC4)CC3)cc2)sc1C(=O)c1ccc(F)cc1 [Example 70, {4-Amino-2-[4-(4-pyrrolidin-1-yl-piperidin-1-yl)-phenylamino]-thiazol-5-yl}-(4-fluoro-phenyl)-methanone]	–
–	170 nM	Nc1nc(Nc2ccc(N3CCC(N4CCCC4)CC3)cc2)sc1C(=O)c1ccc(Cl)cc1 [Example 67, {4-Amino-2-[4-(4-pyrrolidin-1-yl-piperidin-1-yl)-phenylamino]-thiazol-5-yl}-(4-chloro-phenyl)-methanone]	–
–	320 nM	Nc1nc(Nc2ccc(N3CCC(N4CCCCC4)CC3)cc2)sc1C(=O)c1ccc(C(=O)O)cc1 [Example 63]	–
2700 nM	39 nM	Nc1nc(Nc2ccc(N3CCC(N4CCOCC4)CC3)cc2)sc1C(=O)c1ccc2c(c1)OCCO2 [Example 98, {4-Amino-2-[4-(4-morpholin-4-yl-piperidin-1-yl)-phenylamino]-thiazol-5-yl}-(2,3-dihydro-benzo[1,4]dioxin-6-yl)-methanone]	–
–	677 nM	CN(C)C1CCN(c2ccc(Nc3nc(N)c(C(=O)c4ccc(O)c(C(N)=O)c4)s3)cc2)CC1 [Example 93, 5-{4-Amino-2-[4-(4-dimethylamino-piperidin-1-yl)-phenylamino]-thiazole-5-carbonyl}-2-hydroxy-benzamide]	–
–	62 nM	Nc1nc(Nc2ccc(N3CCC(N4CCCC(O)C4)CC3)cc2)sc1C(=O)c1ccc(Cl)cc1 (stereo not shown) [Example 74, {4-Amino-2-[4-(3-hydroxy-[1,4′]bipiperidinyl-1′-yl)-phenylamino]-thiazol-5-yl}-(4-chloro-phenyl)-methanone]	–
770 nM	14 nM	Cc1cccc(C(=O)c2sc(Nc3ccc(N4CCC(N5CCCC5)CC4)cc3)nc2N)c1 [Example 109, {4-Amino-2-[4-(4-pyrrolidin-1-yl-piperidin-1-yl)-phenylamino]-thiazol-5-yl}-tolyl-methanone]	–
4020 nM	76 nM	Nc1nc(Nc2ccc(N3CCC(N4CCCC4)CC3)cc2)sc1C(=O)c1cc(F)cc(F)c1 [Example 66, {4-Amino-2-[4-(4-pyrrolidin-1-yl-piperidin-1-yl)-phenylamino]-thiazol-5-yl}-(3,5-difluoro-phenyl)-methanone]	–
–	132 nM	CN(C)C1CCN(c2ccc(Nc3nc(N)c(C(=O)c4ccc(Cl)cc4)s3)cc2)CC1 [Example 83, {4-Amino-2-[4-(4-dimethylamino-piperidin-1-yl)-phenylamino]-thiazol-5-yl}-(4-chloro-phenyl)-methanone]	–
–	400 nM	Nc1nc(Nc2ccc(N3CCC(N4CCCC(O)C4)CC3)cc2)sc1C(=O)c1ccc(C(=O)O)cc1 (stereo not shown) [Example 79, 4-{4-Amino-2-[4-(3-hydroxy-[1,4′]bipiperidinyl-1′-yl)-phenylamino]-thiazole-5-carbonyl}-benzoic acid]	–
–	390 nM	NC(=O)c1cc(C(=O)c2sc(Nc3ccc(N4CCC(N5CCCC5)CC4)cc3)nc2N)ccc1O [Example 94, 5-{4-Amino-2-[4-(4-pyrrolidin-1-yl-piperidin-1-yl)-phenylamino]-thiazole-5-carbonyl}-2-hydroxy-benzamide]	–
–	111 nM	Nc1nc(Nc2ccc(N3CCC(N4CCCC(O)C4)CC3)cc2)sc1C(=O)c1ccc(F)cc1 (stereo not shown) [Example 77, {4-Amino-2-[4-(3-hydroxy-[1,4′]bipiperidinyl-1′-yl)-phenylamino]-thiazol-5-yl}-(4-fluoro-phenyl)-methanone]	–

The next lines start with the compound.

Compound	IC50 (human cyclin B-CDK1)	IC50 (human cyclin D1-CDK4; [1])	IC50 (human cyclin D1-CDK4)
COc1ccc(C(=O)c2sc(Nc3ccc(N4CCC(N5CCOCC5)CC4)cc3)nc2N)cc1F [Example 100, {4-Amino-2-[4-(4-morpholin-4-yl-piperidin-1-yl)-phenylamino]-thiazol-5-yl}-(3-fluoro-4-methoxy-phenyl)-methanone]	4170 nM	–	90 nM
Nc1nc(Nc2ccc(N3CCC(N4CCCCC4)CC3)cc2)sc1C(=O)c1ccc([N+](=O)[O-])cc1 [Example 56, [4-Amino-2-(4-[1,4′]bipiperidinyl-1′-yl-phenylamino)-thiazol-5-yl]-(4-nitro-phenyl)-methanone]	4770 nM	160 nM	–
Nc1nc(Nc2ccc(N3CCC(N4CCCC(O)C4)CC3)cc2)sc1C(=O)c1ccc([N+](=O)[O-])cc1 (stereo not shown) [Example 52, {4-Amino-2-[4-(3-hydroxy-[1,4′]bipiperidinyl-1′-yl)-phenylamino]-thiazol-5-yl}-(4-nitro-phenyl)-methanone]	–	71 nM	–
Nc1nc(Nc2ccc(N3CCC(N4CCCCC4)CC3)cc2)sc1C(=O)c1ccc(F)cc1 [Example 61, [4-Amino-2-(4-[1,4′]bipiperidinyl-1′-yl-phenylamino)-thiazol-5-yl]-(4-fluoro-phenyl)-methanone]	–	71 nM	–
Nc1nc(Nc2ccc(N3CCC(N4CCCCC4)CC3)cc2)sc1C(=O)c1ccc(Cl)cc1 [Example 58, [4-Amino-2-(4-[1,4′]bipiperidinyl-1′-yl-phenylamino)-thiazol-5-yl]-(4-chloro-phenyl)-methanone]	–	45 nM	–
Nc1nc(Nc2ccc(N3CCC(N4CCCCC4)CC3)cc2)sc1C(=O)c1ccc(Cl)c(Cl)c1 [Example 60, [4-Amino-2-(4-[1,4′]bipiperidinyl-1′-yl-phenylamino)-thiazol-5-yl]-(3,4-dichloro-phenyl)-methanone]	5770 nM	90 nM	–
Nc1nc(Nc2ccc(N3CCC(N4CCCC4)CC3)cc2)sc1C(=O)c1ccc([N+](=O)[O-])cc1 [Example 53, {4-Amino-2-[4-(4-pyrrolidin-1-yl-piperidin-1-yl)-phenylamino]-thiazol-5-yl}-(4-nitro-phenyl)-methanone]	–	96 nM	–
N#Cc1ccc(C(=O)c2sc(Nc3ccc(N4CCC(N5CCCC(O)C5)CC4)cc3)nc2N)cc1 (stereo not shown) [Example 51, 4-{4-Amino-2-[4-(3-hydroxy-[1,4′]bipiperidinyl-1′-yl)-phenylamino]-thiazole-5-carbonyl}-benzonitrile]	–	230 nM	–
CN(C)C1CCN(c2ccc(Nc3nc(N)c(C(=O)c4ccc(C#N)cc4)s3)cc2)CC1 [Example 47, 4-{4-Amino-2-[4-(4-dimethylamino-piperidin-1-yl)-phenylamino]-thiazole-5-carbonyl}-benzonitrile]	–	186 nM	–
CN(C)C1CCN(c2ccc(Nc3nc(N)c(C(=O)c4ccc([N+](=O)[O-])cc4)s3)cc2)CC1 [Example 48, {4-Amino-2-[4-(4-dimethylamino-piperidin-1-yl)-phenylamino]-thiazol-5-yl}-(4-nitro-phenyl)-methanone]	–	74 nM	–
N#Cc1ccc(C(=O)c2sc(Nc3ccc(N4CCC(N5CCCC5)CC4)cc3)nc2N)cc1 [Example 54, 4-{4-Amino-2-[4-(4-pyrrolidin-1-yl-piperidin-1-yl)-phenylamino]-thiazole-5-carbonyl}-benzonitrile]	–	212 nM	–
N#Cc1ccc(C(=O)c2sc(Nc3ccc(N4CCC(N5CCCCC5)CC4)cc3)nc2N)cc1 [Example 55, 4-[4-Amino-2-(4-[1,4′]bipiperidinyl-1′-yl-phenylamino)-thiazole-5-carbonyl]-benzonitrile]	–	370 nM	–

— patent publication US7211576B2, “Diaminothiazoles” (Hoffmann-La Roche Inc., priority 2004, dated 2007)
